Measured values published in patent US5288720A, “Angiotensin II receptor blocking 2,3,6 substituted quinazolinones” (American Cyanamid Company, priority 1993, dated 1994).

System: ANGIOTENSIN II VASOPRESSOR RESPONSE
Assay: AII Challenge: blockade of angiotensin II vasopressor response in conscious SHR
Type: in vivo, rat (Conscious Male Okamoto-Aoki SHR)
Conditions: SHR n=2
How it was run: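 Conscious male Okamoto-Aoki SHR (16-20 weeks, ~330 g) cannulated in aorta and vena cava under local procaine; angiotensin II (human) 0.05 and 0.1 ug/kg i.v. given before and at 30-300 min after test compound i.v., i.p. or orally. Rise in systolic pressure (mmHg) expressed as % blockade versus each rat's predose response.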

[1] = 3 mg/kg i.v., AII 0.05 mcg/kg IV, 30 min post dose
[2] = 3 mg/kg i.v., AII 0.05 mcg/kg IV, 60 min post dose
[3] = 3 mg/kg i.v., AII 0.05 mcg/kg IV, 90 min post dose
[4] = 3 mg/kg i.v., AII 0.05 mcg/kg IV, 120 min post dose
[5] = 3 mg/kg i.v., AII 0.05 mcg/kg IV, 180 min post dose
[6] = 3 mg/kg i.v., AII 0.05 mcg/kg IV, 240 min post dose
[7] = 3 mg/kg i.v., AII 0.05 mcg/kg IV, 300 min post dose
[8] = 3 mg/kg i.v., AII 0.1 mcg/kg IV, 30 min post dose
[9] = 3 mg/kg i.v., AII 0.1 mcg/kg IV, 60 min post dose
[10] = 3 mg/kg i.v., AII 0.1 mcg/kg IV, 90 min post dose
[11] = 3 mg/kg i.v., AII 0.1 mcg/kg IV, 120 min post dose
[12] = 3 mg/kg i.v., AII 0.1 mcg/kg IV, 180 min post dose
[13] = 3 mg/kg i.v., AII 0.1 mcg/kg IV, 240 min post dose
[14] = 3 mg/kg i.v., AII 0.1 mcg/kg IV, 300 min post dose
[15] = 3 mg/kg p.o., AII 0.05 mcg/kg IV, 30 min post dose
[16] = 3 mg/kg p.o., AII 0.05 mcg/kg IV, 60 min post dose
[17] = 3 mg/kg p.o., AII 0.05 mcg/kg IV, 90 min post dose
[18] = 3 mg/kg p.o., AII 0.05 mcg/kg IV, 120 min post dose
[19] = 3 mg/kg p.o., AII 0.05 mcg/kg IV, 180 min post dose
[20] = 3 mg/kg p.o., AII 0.05 mcg/kg IV, 240 min post dose
[21] = 3 mg/kg p.o., AII 0.1 mcg/kg IV, 30 min post dose
[22] = 3 mg/kg p.o., AII 0.1 mcg/kg IV, 60 min post dose
[23] = 3 mg/kg p.o., AII 0.1 mcg/kg IV, 90 min post dose
[24] = 3 mg/kg p.o., AII 0.1 mcg/kg IV, 120 min post dose
[25] = 3 mg/kg p.o., AII 0.1 mcg/kg IV, 180 min post dose
[26] = 3 mg/kg p.o., AII 0.1 mcg/kg IV, 240 min post dose

CCCCc1nc2ccc(C(OC)C3CCCO3)cc2c(=O)n1Cc1ccc(-c2ccccc2-c2nn[nH]n2)cc1 (single isomer, unassigned) [Example 24]
% Inhibition of AII vasopressor response [1]: 100%
Average Change (systolic blood pressure response to AII) [1]: 0 mmHg
% Inhibition of AII vasopressor response [2]: 93%
Average Change (systolic blood pressure response to AII) [2]: 2.5 mmHg
% Inhibition of AII vasopressor response [3]: 93%
Average Change (systolic blood pressure response to AII) [3]: 2.5 mmHg
% Inhibition of AII vasopressor response [4]: 87%
Average Change (systolic blood pressure response to AII) [4]: 5 mmHg
% Inhibition of AII vasopressor response [5]: 80%
Average Change (systolic blood pressure response to AII) [5]: 7.5 mmHg
% Inhibition of AII vasopressor response [6]: 80%
Average Change (systolic blood pressure response to AII) [6]: 7.5 mmHg
% Inhibition of AII vasopressor response [7]: 83%
Average Change (systolic blood pressure response to AII) [7]: 6.5 mmHg
% Inhibition of AII vasopressor response [8]: 100%
Average Change (systolic blood pressure response to AII) [8]: 0 mmHg
% Inhibition of AII vasopressor response [9]: 87%
Average Change (systolic blood pressure response to AII) [9]: 5 mmHg
% Inhibition of AII vasopressor response [10]: 87%
Average Change (systolic blood pressure response to AII) [10]: 5 mmHg
% Inhibition of AII vasopressor response [11]: 100%
Average Change (systolic blood pressure response to AII) [11]: 0 mmHg
% Inhibition of AII vasopressor response [12]: 81%
Average Change (systolic blood pressure response to AII) [12]: 7.5 mmHg
% Inhibition of AII vasopressor response [13]: 62%
Average Change (systolic blood pressure response to AII) [13]: 15 mmHg
% Inhibition of AII vasopressor response [14]: 59%
Average Change (systolic blood pressure response to AII) [14]: 16 mmHg
% Inhibition of AII vasopressor response [15]: 64%
Average Change (systolic blood pressure response to AII) [15]: 17.5 mmHg
% Inhibition of AII vasopressor response [16]: 54%
Average Change (systolic blood pressure response to AII) [16]: 22.5 mmHg
% Inhibition of AII vasopressor response [17]: 48%
Average Change (systolic blood pressure response to AII) [17]: 25 mmHg
% Inhibition of AII vasopressor response [18]: 54%
Average Change (systolic blood pressure response to AII) [18]: 22.5 mmHg
% Inhibition of AII vasopressor response [19]: 20%
Average Change (systolic blood pressure response to AII) [19]: 39 mmHg
% Inhibition of AII vasopressor response [20]: 12%
Average Change (systolic blood pressure response to AII) [20]: 42.5 mmHg
% Inhibition of AII vasopressor response [21]: 57%
Average Change (systolic blood pressure response to AII) [21]: 22.5 mmHg
% Inhibition of AII vasopressor response [22]: 38%
Average Change (systolic blood pressure response to AII) [22]: 32.5 mmHg
% Inhibition of AII vasopressor response [23]: 33%
Average Change (systolic blood pressure response to AII) [23]: 35 mmHg
% Inhibition of AII vasopressor response [24]: 29%
Average Change (systolic blood pressure response to AII) [24]: 37.5 mmHg
% Inhibition of AII vasopressor response [25]: 29%
Average Change (systolic blood pressure response to AII) [25]: 37.5 mmHg
% Inhibition of AII vasopressor response [26]: 24%
Average Change (systolic blood pressure response to AII) [26]: 40 mmHg

CCCCc1nc2ccc(C(OC)C3CCCO3)cc2c(=O)n1Cc1ccc(-c2ccccc2-c2nn[nH]n2)cc1 (single isomer, unassigned; isomer 1) [Example 23, 2-Butyl-6-[methoxy(tetrahydro-2-furanyl)methyl-3-[[2'-(1H-tetrazol-5-yl)[1,1'-biphenyl]-4-yl]-methyl]-4(3e,uns/H/ )-quinazolinone isomer 1]
% Inhibition of AII vasopressor response [1]: 97%
Average Change (systolic blood pressure response to AII) [1]: 1 mmHg
% Inhibition of AII vasopressor response [2]: 93%
Average Change (systolic blood pressure response to AII) [2]: 2.5 mmHg
% Inhibition of AII vasopressor response [3]: 79%
Average Change (systolic blood pressure response to AII) [3]: 7.5 mmHg
% Inhibition of AII vasopressor response [4]: 79%
Average Change (systolic blood pressure response to AII) [4]: 7.5 mmHg
% Inhibition of AII vasopressor response [5]: 79%
Average Change (systolic blood pressure response to AII) [5]: 7.5 mmHg
% Inhibition of AII vasopressor response [6]: 60%
Average Change (systolic blood pressure response to AII) [6]: 14 mmHg
% Inhibition of AII vasopressor response [7]: 50%
Average Change (systolic blood pressure response to AII) [7]: 17.5 mmHg
% Inhibition of AII vasopressor response [8]: 96%
Average Change (systolic blood pressure response to AII) [8]: 1.5 mmHg
% Inhibition of AII vasopressor response [9]: 84%
Average Change (systolic blood pressure response to AII) [9]: 6.5 mmHg
% Inhibition of AII vasopressor response [10]: 79%
Average Change (systolic blood pressure response to AII) [10]: 8.5 mmHg
% Inhibition of AII vasopressor response [11]: 81%
Average Change (systolic blood pressure response to AII) [11]: 7.5 mmHg
% Inhibition of AII vasopressor response [12]: 75%
Average Change (systolic blood pressure response to AII) [12]: 10 mmHg
% Inhibition of AII vasopressor response [13]: 50%
Average Change (systolic blood pressure response to AII) [13]: 20 mmHg
% Inhibition of AII vasopressor response [14]: 50%
Average Change (systolic blood pressure response to AII) [14]: 20 mmHg
% Inhibition of AII vasopressor response [15]: 58%
Average Change (systolic blood pressure response to AII) [15]: 20 mmHg
% Inhibition of AII vasopressor response [16]: 21%
Average Change (systolic blood pressure response to AII) [16]: 37.5 mmHg
% Inhibition of AII vasopressor response [17]: 37%
Average Change (systolic blood pressure response to AII) [17]: 30 mmHg
% Inhibition of AII vasopressor response [18]: 47%
Average Change (systolic blood pressure response to AII) [18]: 25 mmHg
% Inhibition of AII vasopressor response [19]: 21%
Average Change (systolic blood pressure response to AII) [19]: 37.5 mmHg
% Inhibition of AII vasopressor response [21]: 18%
Average Change (systolic blood pressure response to AII) [21]: 45 mmHg
% Inhibition of AII vasopressor response [22]: 14%
Average Change (systolic blood pressure response to AII) [22]: 47.5 mmHg
% Inhibition of AII vasopressor response [23]: 32%
Average Change (systolic blood pressure response to AII) [23]: 37.5 mmHg
% Inhibition of AII vasopressor response [24]: 36%
Average Change (systolic blood pressure response to AII) [24]: 35 mmHg
% Inhibition of AII vasopressor response [25]: 9%

CCCCc1nc2ccc(C(O)C3CCN(C)C3=O)cc2c(=O)n1Cc1ccc(-c2ccccc2-c2nn[nH]n2)cc1 (single isomer, unassigned; isomer 1) [Example 32, 2-Butyl-6-[hydroxy(1-methyl-2-oxo-3-pyrrolidinyl)methyl]-3-[[2'-(1e,uns/H/ -tetrazol-5-yl)[1,1'-biphenyl]-4-yl]methyl]-4(3H)-quinazolinone isomer 1]
% Inhibition of AII vasopressor response [1]: 100%
Average Change (systolic blood pressure response to AII) [1]: 0 mmHg
% Inhibition of AII vasopressor response [2]: 89%
Average Change (systolic blood pressure response to AII) [2]: 2.5 mmHg
% Inhibition of AII vasopressor response [3]: 89%
Average Change (systolic blood pressure response to AII) [3]: 2.5 mmHg
% Inhibition of AII vasopressor response [4]: 89%
Average Change (systolic blood pressure response to AII) [4]: 2.5 mmHg
% Inhibition of AII vasopressor response [5]: 68%
Average Change (systolic blood pressure response to AII) [5]: 7.5 mmHg
% Inhibition of AII vasopressor response [6]: 26%
Average Change (systolic blood pressure response to AII) [6]: 17.5 mmHg
% Inhibition of AII vasopressor response [7]: -13%
Average Change (systolic blood pressure response to AII) [7]: 26.5 mmHg
% Inhibition of AII vasopressor response [8]: 100%
Average Change (systolic blood pressure response to AII) [8]: 0 mmHg
% Inhibition of AII vasopressor response [9]: 96%
Average Change (systolic blood pressure response to AII) [9]: 1.5 mmHg
% Inhibition of AII vasopressor response [10]: 88%
Average Change (systolic blood pressure response to AII) [10]: 5 mmHg
% Inhibition of AII vasopressor response [11]: 94%
Average Change (systolic blood pressure response to AII) [11]: 2.5 mmHg
% Inhibition of AII vasopressor response [12]: 53%
Average Change (systolic blood pressure response to AII) [12]: 20 mmHg
% Inhibition of AII vasopressor response [13]: 24%
Average Change (systolic blood pressure response to AII) [13]: 32.5 mmHg
% Inhibition of AII vasopressor response [14]: 0%
Average Change (systolic blood pressure response to AII) [14]: 42.5 mmHg
% Inhibition of AII vasopressor response [15]: 0%
Average Change (systolic blood pressure response to AII) [15]: 32.5 mmHg
% Inhibition of AII vasopressor response [16]: 46%
Average Change (systolic blood pressure response to AII) [16]: 17.5 mmHg
% Inhibition of AII vasopressor response [17]: 62%
Average Change (systolic blood pressure response to AII) [17]: 12.5 mmHg
% Inhibition of AII vasopressor response [18]: 46%
Average Change (systolic blood pressure response to AII) [18]: 17.5 mmHg
% Inhibition of AII vasopressor response [19]: 11%
Average Change (systolic blood pressure response to AII) [19]: 29 mmHg
% Inhibition of AII vasopressor response [20]: 31%
Average Change (systolic blood pressure response to AII) [20]: 22.5 mmHg
% Inhibition of AII vasopressor response [21]: 27%
Average Change (systolic blood pressure response to AII) [21]: 27.5 mmHg
% Inhibition of AII vasopressor response [22]: 27%
Average Change (systolic blood pressure response to AII) [22]: 27.5 mmHg
% Inhibition of AII vasopressor response [23]: 40%
Average Change (systolic blood pressure response to AII) [23]: 22.5 mmHg
% Inhibition of AII vasopressor response [24]: 28%
Average Change (systolic blood pressure response to AII) [24]: 27 mmHg
% Inhibition of AII vasopressor response [25]: 13%
Average Change (systolic blood pressure response to AII) [25]: 32.5 mmHg
% Inhibition of AII vasopressor response [26]: 23%
Average Change (systolic blood pressure response to AII) [26]: 29 mmHg
